Like-named read-outs stand apart in the source and are kept apart here.

What is called MIC is the lowest concentration found to suppress growth.

Series [1] relates to stringent S. aureus SH1000 cultures. Kind of series: Time-kill against cultures expressing the stringent response (induced with mupirocin). As to conditions: for viability / bactericidal activity in time-kill (in words): stringent response induced with mupirocin, agents at 4×MIC. It is filed as cell-based, Staphylococcus aureus. The method, then: (§1) Methods: MICs were determined for planktonic cultures by broth microdilution according to British Society for Antimicrobial Chemotherapy (BSAC) guidelines. Biofilm MICs (bMIC) and minimum biofilm eradication concentrations (MBECs) were determined using the Calgary biofilm device. The effect of Compound 10 on the viability of cold culture cells was determined by growing S. aureus SH1000 to early exponential phase at 37° C. and resuspending the cells in pre-chilled media, where they were maintained in the presence and absence of Compound 10 and control agents. The effect of Compound 10 on slow growing cells expressing the stringent response was also determined by growing cultures to early log phase and the stringent response induced by the addition of the isoleucyl-tRNA synthetase inhibitor mupirocin. Compound 10 and control agents were then added and samples recovered for viable cell determinations.
When nutrients become limiting for growth bacteria adjust their metabolism from one that supports growth to one that provides for long survival in the absence of nutrients. In many bacteria a key facilitator of this physiological switch, known as the stringent response, is accumulation of guanosine […] and pentaphosphate (Traxler et al., 2008). The antibiotic mupirocin is a strong inducer of the stringent response in S. aureus and effectively causes starvation of charged isoleucyl tRNA by potent inhibition of isoleucy ItRNA synthetase (IRS) (Oliva et al., 2003). The activity of XF drugs against S. aureus SH1000 prevented from growing by the addition of mupirocin (Oliva et al., 2003), was therefore examined (FIG. 10). As an alternative method for arresting growth, bacteria were suspended in cold growth medium (Mascio et al., 2007) and the bactericidal activity of XF drugs was also determined under these conditions (FIG. 11).
(§2) The anti-staphylococcal activities of Compound 10, Compound 12 and a range of comparator agents against slow-growing cultures of Staphylococcus aureus were studied using standard time-kill methodology (Oliva et al. 2003, Hobbs et al. 2008). Staphylococcus aureus SH1000 cultures were grown to early exponential phase (OD600 nm of 0.2) in Mueller-Hinton broth (MHB) before being exposed to antibacterial agents at 4×MIC. An untreated culture served as the negative control. The experiments were undertaken in triplicate.
The antibiotic mupirocin is a strong inducer of the stringent response in S. aureus and causes starvation of charged isoleucyl tRNA by potent inhibition of isoleucyl tRNA synthetase (IRS) (Oliva et al. 2003, Cassels et al. 1995) Stringency was induced in SH1000 cultures by adding mupirocin (4 mg/L) to cells in the early exponential growth phase (OD600 nm of 0.2) (Oliva et al. 2003, Cassels et al. 1995). Cultures were incubated with mupirocin for 30 minutes before sampling began. Cultures were maintained at 37° C., and samples were taken at 30 minute intervals for 300 minutes, serially diluted in phosphate buffered saline (PBS) and diluted culture was spread on Mueller-Hinton agar and was incubated at 37° C. for 18-24 hours before the number of CFU were counted.

The subject of series [2] is S. aureus SH1000 cold cultures. Kind of series: Time-kill against cold cultures (4° C.). It counts as cell-based, Staphylococcus aureus. As to conditions: for viability / bactericidal activity in time-kill (in words): cold culture held at 4° C. for 5 hours, agents at 4×MIC. As for the experimental part:
as §1
The effect of XF drugs on the viability of cold culture cells was determined by growing S. aureus SH1000 to early exponential phase at 37° C., harvesting the cells by centrifugation (5,000×g, 10 min.) and resuspending them in pre-chilled media where they were maintained in the presence and absence of XF drugs and control agents for 5 hours. […] (FIG. 11).
as §2
Cold cultures were prepared by growing SH1000 cells to early exponential phase (OD600 nm of 0.2) at 37° C. Cultures were then centrifuged and the cell pellet was resuspended in MHB pre-chilled to 4° C. The killing kinetics of antimicrobial agents were studied as described in the section above, with the exception that cultures were maintained at 4° C. over the 5 hour sampling period.

Another series deals with E. coli cells. Kind of series: Binding of compounds with bacterial cells (spectrofluorimetric analysis of cell lysates). The conditions noted are these: 5 min incubation. The method, then:
[…] At the end of the incubation period, the cells were sedimented by centrifugation to remove the fraction of unbound test compound and the cell pellet was resuspended in 2 ml of 2% SDS to obtain cell lysates. After overnight incubation with SDS, the amount of cell-bound test compound was estimated by spectrofluorimetric analysis of the cell lysates. The concentration of the compounds in the cell lysates was calculated by measuring the intensities at the maximum of the emission fluorescence spectrum and interpolating the data on a calibration plot. The amount of cell-bound test compound was expressed as nmoles of compound per mg of cell protein. The protein concentration was determined by the method of Lowry (Lowry et al., 1951, J. Biol. Chem. 193:265-275).
All experiments were run in triplicate and the results represent the average of 3 determinations with standard deviations.

Another series concerns S. aureus SH1000. As to the kind of experiment: Planktonic MIC by broth microdilution (BSAC guidelines). It counts as cell-based, Staphylococcus aureus. The method, then:
as §1

Series [3] can be described thus: Chemical stability, qualitative stress tests (HPLC, LC-MS). It is filed as physicochemical. The conditions noted are these: solid, aqueous solution, PBS, 7 days each at 50, 70 and 90° C. As for the experimental part:
The following HPLC methodology was established for the analysis of the exemplary compounds of the invention.
The method involves detection by UV at a wavelength of 420 nm, which is very specific for these compounds. In order to monitor impurities not related to the porphyrin structure (and therefore not absorbing at 420 nm) UV spectra of the whole chromatograms were also recorded between 200 nm and 700 nm by DAD (diode array detector) in certain experiments. • Column: Zorbax Phenyl, 250×4.6 mm, 5 µm • Eluent A: 1.5 g sodium dodecylsulfate+1 mL formic acid in 1000 mL water • Eluent B: 1.5 g sodium dodecylsulfate+1 mL formic acid in 200 mL water+800 mL tetrahydrofurane • Gradient:
• Flow rate: 0.4 mL/min • Detection: 420 nm • Column temperature: 25° C. • Injection volume: 10 μl • Solutions: Porphyrin derivatives were dissolved in eluent A to give a final concentration of approximately 0.3 mg/ml.
Qualitative stress tests were undertaken on the exemplary compounds of the invention. Analysis was undertaken by HPLC & LC-MS. The compounds were stress tested in solid form, in an aqueous solution and a solution made up in phosphate-buffered saline buffer. The samples were initially incubated for 7 days at 50° C. and a sample removed for testing. The samples were then incubated for a further 7 days at 70° C., samples removed as before and the samples incubated further for 7 days at 90° C. HPLC analysis of freshly prepared solutions was undertaken and compared to the samples after 7, 14 and 21 days incubation. A visual comparison of the chromatograms was then undertaken and the content of the main products and by-products as area percentage values determined (see FIG. 4).

Regarding `C[N+](C)(C)CCCOc1ccc(-c2c3nc(cc4ccc([nH]4)c(-c4ccc(OCCC[N+](C)(C)C)cc4)c4nc(cc5ccc2[nH]5)C=C4)C=C3)cc1.[Cl-].[Cl-]` [Compound 10, 5,15-bis-[4-(3-Trimethylammonio-propyloxy)-phenyl]-porphyrin dichloride], the drop in viability in series [1] (stringent response cultures, 4×MIC, within 1 hour) is on record as 5 log; in series [2] (cold culture (4° C.), 4×MIC, within 1 hour) it was 5 log. Besides, the “viability / bactericidal activity in time-kill (in words)” value in series [1] and in series [2] was “retained potent bactericidal activity” in each case. Further, the Bound compound with E. coli cells (0.01 μM compound, 0 washings) is listed as 0.026 ± 0.005 nmoles/mg cell proteins; in the series with E. coli cells (0.01 μM compound, 3 washings) it was 0.015 ± 0.0004 nmoles/mg cell proteins; with E. coli cells (0.1 μM compound, 0 washings) it was 0.274 ± 0.05 nmoles/mg cell proteins; in the series with E. coli cells (0.1 μM compound, 3 washings) it was 0.078 ± 0.02 nmoles/mg cell proteins; in the series with E. coli cells (0.5 μM compound, 0 washings), 1.542 ± 0.350 nmoles/mg cell proteins; with E. coli cells (0.5 μM compound, 3 washings), 0.334 ± 0.092 nmoles/mg cell proteins. Also, the Bound compound with E. coli cells (1 μM compound, 0 washings) is reported as 2.70 ± 0.354 nmoles/mg cell proteins; with E. coli cells (1 μM compound, 3 washings), 1.278 ± 0.102 nmoles/mg cell proteins. The minimum inhibitory concentration (MIC) in the series with S. aureus SH1000 (Staphylococcus aureus, planktonic S. aureus SH1000 (Table 5), read-out: MIC) worked out at 1 µg/mL; with S. aureus SH1000 (planktonic S. aureus SH1000 (Table 6)), 1 µg/mL. For the same compound, the “Chemical stability under stress” value in series [3] is “good stability”.
Regarding `C[N+](C)(C)CCCOc1cccc(-c2c3nc(cc4ccc([nH]4)c(-c4cccc(OCCC[N+](C)(C)C)c4)c4nc(cc5ccc2[nH]5)C=C4)C=C3)c1.[Cl-].[Cl-]` [Compound 12, 5,15-bis-[3-(3-Trimethylammonio-propyloxy)-phenyl]-porphyrin dichloride], the “viability / bactericidal activity in time-kill (in words)” value in series [1] and in series [2] was “retained potent bactericidal activity” in each case. For the same compound, the Bound compound with E. coli cells (0.01 μM compound, 0 washings) stood at 0.041 ± 0.02 nmoles/mg cell proteins; in the series with E. coli cells (0.01 μM compound, 3 washings), 0.021 ± 0.005 nmoles/mg cell proteins; with E. coli cells (0.1 μM compound, 0 washings), 0.151 ± 0.02 nmoles/mg cell proteins; in the series on E. coli cells (0.1 μM compound, 3 washings), 0.089 ± 0.02 nmoles/mg cell proteins; in the series with E. coli cells (0.5 μM compound, 0 washings), 0.806 ± 0.14 nmoles/mg cell proteins; with E. coli cells (0.5 μM compound, 3 washings), 0.622 ± 0.10 nmoles/mg cell proteins. In addition, the Bound compound in the series with E. coli cells (1 μM compound, 0 washings) is on record as 2.70 ± 0.30 nmoles/mg cell proteins; with E. coli cells (1 μM compound, 3 washings), 1.930 ± 0.20 nmoles/mg cell proteins. Also, the MIC in the series with S. aureus SH1000 (Staphylococcus aureus, planktonic S. aureus SH1000 (Table 6), read-out: MIC) amounted to 1 µg/mL. In series [3], the “Chemical stability under stress” value was “good stability”.

The values above are taken from patent US9326511B2, “Methods of inhibiting microbial biofilms” (priority 2008, dated 2016).
